# Reference: PMC9246714, “Characterization of inositol lipid metabolism in gut-associated Bacteroidetes” (Nature Microbiology, 2022)
# B1: BT_1526 myo-inositol phosphate synthase (MIPS) of Bacteroides thetaiotaomicron (enzyme, UniProt Q8A7J8 1-429, looked up)
# chain: MKQEIKPATGRLGVLVVGVGGAVATTMIVGTLASRKGLAKPIGSITQLATMRMENNEEKLIKDVVPLTDLNDIVFGGWDIFPDNAYEAAMYAEVLKEKDLNGVKDELEAIKPMPAAFDHNWAKRLNGTHIKKAATRWEMVEQLRQDIRDFKAANNCERVVVLWAASTEIYIPLSDEHMSLAALEKAMKDNNTEVISPSMCYAYAAIAEDAPFVMGAPNLCVDTPAMWEFSKQKNVPISGKDFKSGQTLMKTVLAPMFKTRMLGVNGWFSTNILGNRDGEVLDDPDNFKTKEVSKLSVIDTIFEPEKYPDLYGDVYHKVRINYYPPRKDNKEAWDNIDIFGWMGYPMEIKVNFLCRDSILAAPIALDLVLFSDLAMRAGMCGIQTWLSFFCKSPMHDFEHQPEHDLFTQWRMVKQTLRNMIGEKEPDYLA
# notes: myo-inositol phosphate synthase BT_1526 of Bacteroides thetaiotaomicron VPI-5482; synthetic gene encoding the BT_1526 open reading frame (wild type) in pET-28a; No cleavage of the His tag is described; also called BT_1526 MIPS; BT MIP synthase; source: E. coli BL21 (DE3), purified (HisTrap, Superdex S200 size-exclusion chromatography)
# Columns and labels:
# [1] = target: T1, BT_1526 MIPS (Bacteroides thetaiotaomicron, UniProt Q8A7J8); assay: X-ray crystal structure, […] Å; conditions: cofactor binding site; crystals grown at pH 6.5, 20 °C
# T1 construct: full-length wild-type ORF (synthetic gene), pET-28a, N-terminal His6 tag, E. coli BL21(DE3); HisTrap and Superdex S200; tetramer in crystal
# T1 sequence (Q8A7J8 1-429): B1 chain
# [2] = target: the molecule itself; assay: crystal structure; sitting drop vapour diffusion, 20 °C; 200 mM sodium formate, 100 mM bis tris propane pH 6.5, 20% (w/v) PEG 3350; protein at 11.4 mg/ml; MIPS:NAD complex
Molecule,"X-ray crystal structure, 2.0 Å [1]",stoichiometry N [2]
"NC(=O)c1ccc[n+]([C@@H]2O[C@H](COP(=O)(O)OP(=O)(O)OC[C@H]3O[C@@H](n4cnc5c(N)ncnc54)[C@H](O)[C@@H]3O)[C@@H](O)[C@H]2O)c1 [NAD, NAD+]",the structure of the MIPS:NAD complex in the cofactor binding site,–
B1,–,4
